Measured values: patent publication US20120122860A1, “SOLID FORMS OF SULFONAMIDES AND AMINO ACIDS” (Plexxikon, Inc., priority 2009, published 2012)

Experiments:
B-Raf V600E = B-Raf V600E (Homo sapiens, UniProt P15056, V600E); assay: Kinase activity assay, B-Raf V600E; assay type: biochemical; conditions: read-out: activity toward kinase B-Raf V600E, IC50
B-Raf = B-Raf (Homo sapiens, UniProt P15056); assay: Kinase activity assay, B-Raf; assay type: biochemical; conditions: read-out: activity toward kinase B-Raf, IC50
B-Raf, sequence (P15056 whole entry): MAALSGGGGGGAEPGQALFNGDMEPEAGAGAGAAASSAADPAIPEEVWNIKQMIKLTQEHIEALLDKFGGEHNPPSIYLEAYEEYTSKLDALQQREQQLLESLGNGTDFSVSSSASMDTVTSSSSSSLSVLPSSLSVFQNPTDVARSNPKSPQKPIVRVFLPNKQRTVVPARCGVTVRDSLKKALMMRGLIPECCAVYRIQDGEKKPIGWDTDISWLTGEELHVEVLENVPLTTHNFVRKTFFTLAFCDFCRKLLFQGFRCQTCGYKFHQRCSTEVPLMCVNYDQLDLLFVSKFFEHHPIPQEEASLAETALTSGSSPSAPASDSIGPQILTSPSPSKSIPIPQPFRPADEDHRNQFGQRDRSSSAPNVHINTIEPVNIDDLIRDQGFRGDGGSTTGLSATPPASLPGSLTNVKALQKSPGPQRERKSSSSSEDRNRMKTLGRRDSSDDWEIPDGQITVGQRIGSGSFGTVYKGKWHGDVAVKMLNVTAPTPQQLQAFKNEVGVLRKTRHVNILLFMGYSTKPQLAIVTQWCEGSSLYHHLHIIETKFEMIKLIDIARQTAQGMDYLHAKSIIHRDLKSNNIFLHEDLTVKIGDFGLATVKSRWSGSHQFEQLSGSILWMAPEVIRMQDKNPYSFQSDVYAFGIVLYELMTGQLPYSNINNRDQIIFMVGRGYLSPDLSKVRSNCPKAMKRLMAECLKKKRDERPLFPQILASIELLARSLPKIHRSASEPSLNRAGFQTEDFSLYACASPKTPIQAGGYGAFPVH

Src = Src (Homo sapiens, UniProt P12931); assay: Kinase activity assay, Src
Src, sequence (P12931 whole entry): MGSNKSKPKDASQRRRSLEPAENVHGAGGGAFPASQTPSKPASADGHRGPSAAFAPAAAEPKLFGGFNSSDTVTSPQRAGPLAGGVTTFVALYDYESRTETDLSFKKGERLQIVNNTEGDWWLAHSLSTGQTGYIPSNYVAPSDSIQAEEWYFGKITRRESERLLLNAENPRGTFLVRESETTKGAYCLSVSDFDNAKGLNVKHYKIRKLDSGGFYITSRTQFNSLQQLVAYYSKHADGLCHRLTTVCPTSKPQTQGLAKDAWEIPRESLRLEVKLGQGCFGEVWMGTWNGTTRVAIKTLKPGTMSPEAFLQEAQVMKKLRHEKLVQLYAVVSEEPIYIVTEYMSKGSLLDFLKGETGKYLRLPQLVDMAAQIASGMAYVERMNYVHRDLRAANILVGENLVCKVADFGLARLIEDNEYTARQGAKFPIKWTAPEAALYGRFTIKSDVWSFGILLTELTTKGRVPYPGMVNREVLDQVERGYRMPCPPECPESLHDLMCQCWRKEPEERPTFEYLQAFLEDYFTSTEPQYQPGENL

TrkA = TrkA (Homo sapiens, UniProt P04629); assay: Kinase activity assay, TrkA
TrkA, sequence (P04629 33-796): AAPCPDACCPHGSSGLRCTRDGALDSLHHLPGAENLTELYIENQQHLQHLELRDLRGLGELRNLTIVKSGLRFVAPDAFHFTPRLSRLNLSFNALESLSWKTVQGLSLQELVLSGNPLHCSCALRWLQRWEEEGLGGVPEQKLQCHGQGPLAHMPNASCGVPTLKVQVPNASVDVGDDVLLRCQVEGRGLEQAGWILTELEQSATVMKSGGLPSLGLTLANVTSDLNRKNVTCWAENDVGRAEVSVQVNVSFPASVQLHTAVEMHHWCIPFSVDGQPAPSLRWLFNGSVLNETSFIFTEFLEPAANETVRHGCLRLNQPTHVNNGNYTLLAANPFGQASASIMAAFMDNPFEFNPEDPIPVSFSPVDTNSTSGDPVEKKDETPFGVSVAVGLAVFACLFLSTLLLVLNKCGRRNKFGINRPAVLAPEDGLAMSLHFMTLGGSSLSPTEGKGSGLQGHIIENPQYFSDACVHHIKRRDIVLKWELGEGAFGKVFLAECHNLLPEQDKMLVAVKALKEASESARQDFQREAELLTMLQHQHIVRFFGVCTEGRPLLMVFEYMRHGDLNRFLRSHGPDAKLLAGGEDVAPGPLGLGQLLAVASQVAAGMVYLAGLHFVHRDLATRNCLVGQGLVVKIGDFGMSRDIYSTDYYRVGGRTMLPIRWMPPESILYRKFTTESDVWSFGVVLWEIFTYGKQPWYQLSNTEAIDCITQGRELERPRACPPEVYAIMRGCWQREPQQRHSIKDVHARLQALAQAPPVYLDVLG

C-Raf = C-Raf (Homo sapiens, UniProt P04049); assay: Kinase activity assay, C-Raf
C-Raf, sequence (P04049 whole entry): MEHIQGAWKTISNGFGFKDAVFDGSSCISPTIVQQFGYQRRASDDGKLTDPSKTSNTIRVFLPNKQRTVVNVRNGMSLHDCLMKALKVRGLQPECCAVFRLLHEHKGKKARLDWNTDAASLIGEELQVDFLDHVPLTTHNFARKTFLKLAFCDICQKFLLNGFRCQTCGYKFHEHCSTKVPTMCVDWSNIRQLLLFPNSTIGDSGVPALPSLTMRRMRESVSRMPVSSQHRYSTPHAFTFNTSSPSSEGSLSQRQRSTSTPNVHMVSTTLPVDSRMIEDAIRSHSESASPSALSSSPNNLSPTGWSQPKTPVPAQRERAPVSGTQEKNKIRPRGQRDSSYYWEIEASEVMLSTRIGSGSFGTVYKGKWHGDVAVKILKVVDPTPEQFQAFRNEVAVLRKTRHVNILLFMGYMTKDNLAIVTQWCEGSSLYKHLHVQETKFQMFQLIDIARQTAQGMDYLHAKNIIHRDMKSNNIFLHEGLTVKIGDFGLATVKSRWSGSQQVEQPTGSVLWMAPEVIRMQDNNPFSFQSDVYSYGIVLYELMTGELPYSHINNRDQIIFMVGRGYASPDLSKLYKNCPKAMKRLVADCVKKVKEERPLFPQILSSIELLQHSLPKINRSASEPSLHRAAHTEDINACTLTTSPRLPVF

Kdr = Kdr (Homo sapiens, UniProt P35968); assay: Kinase activity assay, Kdr
Kdr, sequence (P35968 20-1356): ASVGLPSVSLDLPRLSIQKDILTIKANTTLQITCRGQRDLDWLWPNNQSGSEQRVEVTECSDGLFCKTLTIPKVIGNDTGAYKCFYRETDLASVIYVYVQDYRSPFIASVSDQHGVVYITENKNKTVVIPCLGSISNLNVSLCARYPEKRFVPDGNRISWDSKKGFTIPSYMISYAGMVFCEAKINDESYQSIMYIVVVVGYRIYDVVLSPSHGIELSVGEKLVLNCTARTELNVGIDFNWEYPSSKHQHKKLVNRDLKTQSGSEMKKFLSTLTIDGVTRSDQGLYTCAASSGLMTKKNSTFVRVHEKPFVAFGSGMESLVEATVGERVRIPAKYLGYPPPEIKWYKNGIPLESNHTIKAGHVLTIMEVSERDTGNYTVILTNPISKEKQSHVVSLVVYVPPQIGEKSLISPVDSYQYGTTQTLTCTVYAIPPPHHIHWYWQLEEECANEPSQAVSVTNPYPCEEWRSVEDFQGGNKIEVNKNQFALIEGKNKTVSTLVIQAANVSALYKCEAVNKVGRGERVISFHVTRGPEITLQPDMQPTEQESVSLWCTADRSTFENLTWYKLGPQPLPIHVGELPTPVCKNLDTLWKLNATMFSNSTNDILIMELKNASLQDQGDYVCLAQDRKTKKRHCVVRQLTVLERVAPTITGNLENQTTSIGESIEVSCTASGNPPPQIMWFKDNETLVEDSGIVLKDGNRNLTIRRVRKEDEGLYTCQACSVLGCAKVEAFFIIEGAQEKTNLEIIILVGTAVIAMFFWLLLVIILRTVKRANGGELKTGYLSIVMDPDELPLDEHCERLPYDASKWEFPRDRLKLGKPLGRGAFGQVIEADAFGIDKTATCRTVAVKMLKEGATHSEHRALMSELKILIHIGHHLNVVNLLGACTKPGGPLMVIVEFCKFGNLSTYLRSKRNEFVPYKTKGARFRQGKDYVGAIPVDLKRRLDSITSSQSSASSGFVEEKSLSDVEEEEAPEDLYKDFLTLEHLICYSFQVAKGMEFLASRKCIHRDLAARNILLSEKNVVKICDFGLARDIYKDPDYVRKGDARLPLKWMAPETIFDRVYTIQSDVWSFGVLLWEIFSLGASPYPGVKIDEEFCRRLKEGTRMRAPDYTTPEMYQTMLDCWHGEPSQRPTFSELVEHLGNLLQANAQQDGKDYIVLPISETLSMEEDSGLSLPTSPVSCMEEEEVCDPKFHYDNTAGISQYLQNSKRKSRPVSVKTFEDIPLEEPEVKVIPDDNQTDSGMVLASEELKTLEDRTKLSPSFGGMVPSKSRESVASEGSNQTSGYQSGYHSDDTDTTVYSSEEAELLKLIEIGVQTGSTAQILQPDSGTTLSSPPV

A-Raf = biological target: T1, A-Raf (Homo sapiens, UniProt P10398); assay: Kinase activity assay, A-Raf
T1 sequence (P10398 1-606): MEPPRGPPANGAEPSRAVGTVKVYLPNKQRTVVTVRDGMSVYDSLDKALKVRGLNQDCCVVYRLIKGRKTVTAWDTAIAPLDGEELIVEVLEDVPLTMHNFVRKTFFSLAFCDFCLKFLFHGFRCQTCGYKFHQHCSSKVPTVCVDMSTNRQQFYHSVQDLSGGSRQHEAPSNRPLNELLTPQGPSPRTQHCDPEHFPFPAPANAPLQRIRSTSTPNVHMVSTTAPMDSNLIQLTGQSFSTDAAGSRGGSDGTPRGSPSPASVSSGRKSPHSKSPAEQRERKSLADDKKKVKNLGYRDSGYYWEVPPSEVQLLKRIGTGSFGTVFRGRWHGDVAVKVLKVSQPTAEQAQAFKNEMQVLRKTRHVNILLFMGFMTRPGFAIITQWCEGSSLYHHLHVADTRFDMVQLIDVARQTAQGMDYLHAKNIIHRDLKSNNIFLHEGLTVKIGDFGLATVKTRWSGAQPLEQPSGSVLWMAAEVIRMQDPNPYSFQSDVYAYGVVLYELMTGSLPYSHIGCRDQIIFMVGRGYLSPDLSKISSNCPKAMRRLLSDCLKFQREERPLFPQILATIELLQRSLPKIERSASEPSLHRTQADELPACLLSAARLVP

MAP4K4 = MAP4K4 (Homo sapiens, UniProt O95819); assay: Kinase activity assay, MAP4K4
Kit = Kit (Homo sapiens, UniProt P10721); assay: Kinase activity assay, Kit
Btk = Btk (Homo sapiens, UniProt Q06187); assay: Kinase activity assay, Btk
Btk, sequence (Q06187 whole entry): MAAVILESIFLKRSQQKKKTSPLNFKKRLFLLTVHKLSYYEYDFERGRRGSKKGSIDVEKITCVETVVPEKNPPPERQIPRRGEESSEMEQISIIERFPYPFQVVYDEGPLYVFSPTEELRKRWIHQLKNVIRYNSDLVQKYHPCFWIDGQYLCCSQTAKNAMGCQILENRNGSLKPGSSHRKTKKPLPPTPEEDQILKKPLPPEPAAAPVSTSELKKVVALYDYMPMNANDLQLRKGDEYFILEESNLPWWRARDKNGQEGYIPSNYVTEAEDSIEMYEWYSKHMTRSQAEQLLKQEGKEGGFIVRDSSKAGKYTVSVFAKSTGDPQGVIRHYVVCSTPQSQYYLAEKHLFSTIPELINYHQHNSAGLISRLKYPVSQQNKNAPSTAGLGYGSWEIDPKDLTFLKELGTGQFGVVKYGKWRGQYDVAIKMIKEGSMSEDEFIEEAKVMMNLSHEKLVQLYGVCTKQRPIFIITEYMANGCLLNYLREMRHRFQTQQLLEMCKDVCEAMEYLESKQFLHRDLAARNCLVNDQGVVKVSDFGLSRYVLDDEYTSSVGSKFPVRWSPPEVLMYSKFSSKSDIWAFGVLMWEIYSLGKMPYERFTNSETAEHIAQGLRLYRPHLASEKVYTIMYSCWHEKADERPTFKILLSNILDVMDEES

TEC = biological target: T2, TEC (Homo sapiens, UniProt P42680); assay: Kinase activity assay, TEC
T2 sequence (P42680 1-631): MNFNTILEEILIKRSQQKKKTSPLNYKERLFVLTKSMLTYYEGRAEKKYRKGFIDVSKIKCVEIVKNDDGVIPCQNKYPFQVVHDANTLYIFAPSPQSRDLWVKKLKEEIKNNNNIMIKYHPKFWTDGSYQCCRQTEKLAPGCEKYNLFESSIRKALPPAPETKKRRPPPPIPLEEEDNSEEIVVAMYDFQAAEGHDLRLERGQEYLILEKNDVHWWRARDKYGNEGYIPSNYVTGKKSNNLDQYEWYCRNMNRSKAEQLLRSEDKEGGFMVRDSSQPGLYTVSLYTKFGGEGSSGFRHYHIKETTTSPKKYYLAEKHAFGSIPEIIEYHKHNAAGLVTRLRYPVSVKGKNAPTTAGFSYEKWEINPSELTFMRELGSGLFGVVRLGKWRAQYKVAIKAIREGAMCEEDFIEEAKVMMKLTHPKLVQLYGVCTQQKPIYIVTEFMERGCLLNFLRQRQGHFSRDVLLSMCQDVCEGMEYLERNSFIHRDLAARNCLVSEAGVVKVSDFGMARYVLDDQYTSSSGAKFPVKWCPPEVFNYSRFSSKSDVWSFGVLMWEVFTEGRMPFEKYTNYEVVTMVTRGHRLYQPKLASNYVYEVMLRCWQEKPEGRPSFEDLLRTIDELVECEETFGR

Flt1 = Flt1 (Homo sapiens, UniProt P17948); assay: Kinase activity assay, Flt1
Fms = Fms (Homo sapiens, UniProt P07333); assay: Kinase activity assay, Fms
PI3Kα = PI3Kα (Homo sapiens, UniProt P42336); assay: Kinase activity assay, PI3Kα

Measured: IC50

B-Raf V600E, sequence (P15056 whole entry V600E): as the sequence (P15056 whole entry) above, with V600E counted along it

COc1ccnc2[nH]cc(C(=O)c3cccc(NS(=O)(=O)c4ccc(C(F)(F)F)cc4)c3F)c12 [P-2060, N-[2-Fluoro-3-(4-methoxy-1H-pyrrolo[2,3-b]pyridine-3-carbonyl)-phenyl]-4-trifluoromethyl-benzenesulfonamide]
≤ 10 µM: B-Raf V600E | B-Raf | Src | TrkA | C-Raf | Kdr

COc1cnc2[nH]cc(C(=O)c3c(F)ccc(NS(=O)(=O)c4ncn[nH]4)c3F)c2c1 [P-2061, 2H-[1,2,4]Triazole-3-sulfonic acid [2,4-difluoro-3-(5-methoxy-1H-pyrrolo[2,3-b]pyridine-3-carbonyl)-phenyl]-amide]
≤ 10 µM: B-Raf V600E | A-Raf | Src | TrkA | C-Raf | MAP4K4 | Kdr

Cn1cc(-c2cnc3[nH]cc(C(=O)c4cc(NS(=O)(=O)c5cccc(F)c5)ccc4F)c3c2)cn1 [P-2105, 3-Fluoro-N-{4-fluoro-3-[5-(1-methyl-1H-pyrazol-4-yl)-1H-pyrrolo[2,3-b]pyridine-3-carbonyl]-phenyl}-benzenesulfonamide]
not listed: A-Raf | PI3Kα
≤ 10 µM: all other assays above

CCCS(=O)(=O)Nc1ccc(F)c(C(=O)c2c[nH]c3ncc(-c4ccc(S(=O)(=O)NC5CC5)cc4)cc23)c1F [P-2168, N-Cyclopropyl-4-{3-[2,6-difluoro-3-(propane-1-sulfonylamino)-benzoyl]-1H-pyrrolo[2,3-b]pyridin-5-yl}-benzenesulfonamide]
not listed: A-Raf | MAP4K4 | TEC | Flt1 | PI3Kα
≤ 10 µM: all other assays above

CCCS(=O)(=O)Nc1ccc(F)c(C(=O)c2c[nH]c3ncc(-c4cn[nH]c4)cc23)c1F [P-2174, Propane-1-sulfonic acid {2,4-difluoro-3-[5-(1H-pyrazol-4-yl)-1H-pyrrolo[2,3-b]pyridine-3-carbonyl]-phenyl}-amide]
not listed: C-Raf | A-Raf | MAP4K4 | Flt1
≤ 10 µM: all other assays above

CCCS(=O)(=O)Nc1ccc(F)c(C(=O)c2c[nH]c3ncc(-c4ccn[nH]4)cc23)c1F [P-2176]
not listed: C-Raf | A-Raf | TEC | Flt1 | PI3Kα
≤ 10 µM: all other assays above

CCCS(=O)(=O)Nc1ccc(F)c(C(=O)c2c[nH]c3ncc(-c4ccc(N)nc4)cc23)c1F [P-2214, Propane-1-sulfonic acid {3-[5-(6-amino-pyridin-3-yl)-1H-pyrrolo[2,3-b]pyridine-3-carbonyl]-2,4-difluoro-phenyl}-amide]
not listed: TrkA | A-Raf
≤ 10 µM: all other assays above

CCCS(=O)(=O)Nc1ccc(F)c(C(=O)c2c[nH]c3ncc(C#CCOC)cc23)c1F [P-2239, Propane-1-sulfonic acid {2,4-difluoro-3-[5-(3-methoxy-prop-1-ynyl)-1H-pyrrolo[2,3-b]pyridine-3-carbonyl]-phenyl}-amide]
not listed: Btk | TEC | Flt1 | PI3Kα
≤ 10 µM: all other assays above

CCCS(=O)(=O)Nc1ccc(F)c(C(=O)c2c[nH]c3ncc(CCCOC)cc23)c1F [P-2240, propane-1-sulfonic acid {2,4-difluoro-3-[5-(3-methoxy-propyl)-1H-pyrrolo[2,3-b]pyridine-3-carbonyl]-phenyl}-amide]
not listed: Btk | TEC | Flt1 | Fms | PI3Kα
≤ 10 µM: all other assays above

CCCCS(=O)(=O)Nc1ccc(F)c(C(=O)c2c[nH]c3ncc(-c4ccc(F)cc4)cc23)c1F [P-2301, Butane-1-sulfonic acid {2,4-difluoro-3-[5-(4-fluoro-phenyl)-1H-pyrrolo[2,3-b]pyridine-3-carbonyl]-phenyl}-amide]
≤ 10 µM: B-Raf V600E | B-Raf | Src | Kit | TrkA | MAP4K4 | Kdr | Fms

CCCCS(=O)(=O)Nc1ccc(F)c(C(=O)c2c[nH]c3ncc(-c4cnn(C)c4)cc23)c1F [P-2302, Butane-1-sulfonic acid {2,4-difluoro-3-[5-(1-methyl-1H-pyrazol-4-yl)-1H-pyrrolo[2,3-b]pyridine-3-carbonyl]-phenyl}-amide]
not listed: C-Raf | A-Raf | MAP4K4 | PI3Kα
≤ 10 µM: all other assays above

O=C(c1c(F)ccc(NS(=O)(=O)C(F)(F)F)c1F)c1c[nH]c2ncc(-c3ccc(F)cc3)cc12 [P-2344, N-{2,4-Difluoro-3-[5-(4-fluoro-phenyl)-1H-pyrrolo[2,3-b]pyridine-3-carbonyl]-phenyl}-C,C,C-trifluoro-methanesulfonamide]
≤ 10 µM: B-Raf V600E | B-Raf | Src | Kit | TrkA | Kdr | Fms

Cn1cc(-c2cnc3[nH]cc(C(=O)c4c(F)ccc(NS(=O)(=O)C(F)(F)F)c4F)c3c2)cn1 [P-2345, N-{2,4-Difluoro-3-[5-(1-methyl-1H-pyrazol-4-yl)-1H-pyrrolo[2,3-b]pyridine-3-carbonyl]-phenyl}-C,C,C-trifluoro-methanesulfonamide]
≤ 10 µM: B-Raf V600E | B-Raf | Src | Kit | Btk | TrkA | Kdr
